Data from ChEMBL document CHEMBL4651402, “Screening of ~5500 FDA-approved drugs and clinical candidates for anti-SARS-CoV-2 activity” (2021).
Where a name gives a salt, the structure may show the parent alone.

System: SARS-CoV-2
Test: microbe, parasite or virus in culture
Settings: Severe acute respiratory syndrome coronavirus 2, Vero C1008, 48 h

SMILES	IC50 [µM]	IC50 (read-out: pIC50 (converted)) [µM]
O=C(NCCN1CCOCC1)c1ccc(Cl)cc1 [MOCLOBEMIDE]	> 20	> 20
NC(=O)C[S+]([O-])C(c1ccccc1)c1ccccc1 (stereo not given) [MODAFINIL]	> 20	> 20
Cc1nccnc1N1CCCCC1 [MODALINE]	> 20	> 20
COc1cc(C(=O)Nc2ccccc2CCC2CCCCN2C)ccc1O (stereo not given) [MODECAINIDE]	> 20	> 20
CCOC(=O)[C@H](CCc1ccccc1)N[C@@H](C)C(=O)N1Cc2cc(OC)c(OC)cc2C[C@H]1C(=O)O [MOEXIPRIL]	> 20	> 20
CCc1c(C)[nH]c2c1C(=O)C(CN1CCOCC1)CC2 (stereo not given) [MOLINDONE]	> 20	> 20
CCOC(=O)[N-]c1c[n+](N2CCOCC2)no1 [MOLSIDOMINE]	> 20	> 20
N#CCNC(=O)c1ccc(-c2ccnc(Nc3ccc(N4CCOCC4)cc3)n2)cc1 [MOMELOTINIB]	> 20	> 20
C[C@@H]1C[C@H]2[C@@H]3CCC4=CC(=O)C=C[C@]4(C)[C@@]3(Cl)[C@@H](O)C[C@]2(C)[C@@]1(OC(=O)c1ccco1)C(=O)CCl [MOMETASONE FUROATE]	> 20	> 20
CC[C@@]1([C@@H]2O[C@@H]([C@H]3O[C@@](O)(CO)[C@H](C)C[C@@H]3C)C[C@@H]2C)CC[C@H]([C@]2(C)CC[C@]3(C[C@H](O)[C@@H](C)[C@@H]([C@@H](C)[C@@H](OC)[C@H](C)C(=O)O)O3)O2)O1 [MONENSIN]	> 20	> 20
Oc1ccc(OCc2ccccc2)cc1 [MONOBENZONE]	> 20	> 20
C[C@H]1C(=O)O[C@@H]2CCN3CC=C(COC(=O)[C@](C)(O)[C@]1(C)O)[C@H]23 [MONOCROTALINE]	> 20	> 20
NCCO [MONOETHANOLAMINE]	> 20	> 20
COC(=O)/C=C/C(=O)O [MONOMETHYL FUMARATE]	> 20	> 20
CC(C)(O)c1ccccc1CC[C@@H](SCC1(CC(=O)O)CC1)c1cccc(/C=C/c2ccc3ccc(Cl)cc3n2)c1 [MONTELUKAST]	> 20	> 20
Cc1ccc(C2(O)CCN(CCCC(=O)c3ccc(F)cc3)CC2)cc1 [MOPERONE]	> 20	> 20
COc1ccccc1OCC(O)CNC(C)C (stereo not given) [MOPROLOL]	> 20	> 20
Cc1ccsc1/C=C/C1=NCCCN1C [MORANTEL]	> 20	> 20
CCOC(=O)Nc1ccc2c(c1)N(C(=O)CCN1CCOCC1)c1ccccc1S2 [MORICIZINE]	> 20	> 20
O=c1c(O)c(-c2ccc(O)cc2O)oc2cc(O)cc(O)c12 [MORIN]	> 20	> 20

SMILES	IC50 [µM]	IC50 (read-out: pIC50 (converted)) [µM]
O=C(OCCN1CCOCC1)c1cccnc1Nc1cccc(C(F)(F)F)c1 [MORNIFLUMATE]	> 20	> 20
N=C(N)NC(=N)N1CCOCC1 [MOROXYDINE]	> 20	> 20
CCOC(=O)C1(c2ccccc2)CCN(CCN2CCOCC2)CC1 [MORPHERIDINE]	> 20	> 20
CCOc1cc(N)c(Cl)cc1C(=O)NCC1CN(Cc2ccc(F)cc2)CCO1 (stereo not given) [MOSAPRIDE]	> 20	> 20
CC1(C)CNc2cc(NC(=O)c3cccnc3NCc3ccncc3)ccc21 [MOTESANIB]	> 20	> 20
CCCN(CCC)C(=O)C1=Cc2ccc(-c3ccc(C(=O)N4CCCC4)cc3)cc2N=C(N)C1 [MOTOLIMOD]	> 20	> 20
COc1c(N2C[C@@H]3CCCN[C@@H]3C2)c(F)cc2c(=O)c(C(=O)O)cn(C3CC3)c12 [MOXIFLOXACIN]	> 20	> 20
CC(=O)Oc1cc(C(C)C)c(OCCN(C)C)cc1C [MOXISYLYTE]	> 20	> 20
Cn1c([N+](=O)[O-])cnc1/C=N/N1CC(CN2CCOCC2)OC1=O (stereo not given) [MOXNIDAZOLE]	> 20	> 20
COc1nc(C)nc(Cl)c1NC1=NCCN1 [MOXONIDINE]	> 20	> 20
Cc1ccccc1C(=O)Nc1ccc(C(=O)N2CCCC(N(C)C)c3ccccc32)cc1 (stereo not given) [MOZAVAPTAN]	> 20	> 20
CC(c1ccc(Cl)c(Cl)c1)N1N=C(N)CC1=O (stereo not given) [MUZOLIMINE]	> 20	> 20
COc1c(C)c2c(c(O)c1C/C=C(\C)CCC(=O)OCCN1CCOCC1)C(=O)OC2 [MYCOPHENOLATE MOFETIL]	> 20	> 20
COc1c(C)c2c(c(O)c1C/C=C(\C)CCC(=O)O)C(=O)OC2 [MYCOPHENOLIC ACID]	> 20	> 20
CC1N(CC(=O)c2ccccc2)CCCC1(C)c1cccc(O)c1 (stereo not given) [MYFADOL]	> 20	> 20
c1cncc(C2=NCCC2)c1 [MYOSMINE]	> 20	> 20
O=c1c(O)c(-c2cc(O)c(O)c(O)c2)oc2cc(O)cc(O)c12 [MYRICETIN]	> 20	> 20
CCCCCCCCCCCCCC(=O)O [MYRISTIC ACID]	> 20	> 20
OC[C@H]1O[C@@H](n2cnc3c(NC4CCCC4)ncnc32)[C@H](O)[C@@H]1O [N6-CYCLOPENTYLADENOSINE]	> 20	> 20
N=C(N)NC(=O)c1nc(Cl)c(N2CCCCCC2)nc1N [N,N-HEXAMETHYLENEAMILORIDE]	> 20	> 20

SMILES	IC50 [µM]	IC50 (read-out: pIC50 (converted)) [µM]
CC(=O)N1CCCC1C(=O)O (stereo not given) [N-ACETYLPROLINE]	> 20	> 20
COc1ccc2cc(CCC(C)=O)ccc2c1 [NABUMETONE]	> 20	> 20
NC(=O)c1ccc[n+]([C@@H]2O[C@H](COP(=O)([O-])OP(=O)(O)OC[C@H]3O[C@@H](n4cnc5c(N)ncnc54)[C@H](O)[C@@H]3O)[C@@H](O)[C@H]2O)c1 [NADIDE]	> 20	> 20
CC1CCc2c(N3CCC(O)CC3)c(F)cc3c(=O)c(C(=O)O)cn1c23 (stereo not given) [NADIFLOXACIN]	> 20	> 20
CC(C)(C)NCC(O)COc1cccc2c1CC(O)C(O)C2 (stereo not given) [NADOLOL]	> 20	> 20
N=C(N)Nc1ccc(C(=O)Oc2ccc3cc(C(=N)N)ccc3c2)cc1 [NAFAMOSTAT]	> 20	> 20
CCOc1ccc2ccccc2c1C(=O)N[C@@H]1C(=O)N2[C@@H]1SC(C)(C)[C@@H]2C(=O)O [NAFCILLIN]	> 20	> 20
CC(C)(Oc1ccc(C2CCCc3ccccc32)cc1)C(=O)O (stereo not given) [NAFENOPIN]	> 20	> 20
O=C(Cn1ccnc1)c1ccc2ccccc2c1 [NAFIMIDONE]	> 20	> 20
CCN(CC)CCOC(=O)C(Cc1cccc2ccccc12)CC1CCCO1 (stereo not given) [NAFRONYL]	> 20	> 20
CN(C/C=C/c1ccccc1)Cc1cccc2ccccc12 [NAFTIFINE]	> 20	> 20
COc1ccccc1N1CCN(CC(O)COc2cccc3ccccc23)CC1 (stereo not given) [NAFTOPIDIL]	> 20	> 20
Oc1ccc2c3c1O[C@H]1[C@@H](O)CC[C@@]4(O)[C@@H](C2)N(CC2CCC2)CC[C@]314 [NALBUPHINE]	> 50.1	> 50.1
CCn1cc(C(=O)O)c(=O)c2ccc(C)nc21 [NALIDIXIC ACID]	> 20	> 20
C=CCN1CC[C@]23c4c5ccc(O)c4O[C@H]2C(=O)CC[C@@]3(O)[C@H]1C5 [NALOXONE]	> 20	> 20
O=C1CC[C@@]2(O)[C@H]3Cc4ccc(O)c5c4[C@@]2(CCN3CC2CC2)[C@H]1O5 [NALTREXONE]	> 20	> 20
CNC(=O)[C@H]1O[C@@H](n2cnc3c(NCc4cccc(I)c4)nc(Cl)nc32)[C@H](O)[C@@H]1O [NAMODENOSON]	> 20	> 20
CCCCCCCCCC(=O)O[C@H]1CC[C@H]2[C@@H]3CCC4=CC(=O)CC[C@@H]4[C@H]3CC[C@]12C [NANDROLONE DECANOATE]	> 20	> 20
C[C@]12CC[C@H]3[C@@H](CCC4=CC(=O)CC[C@@H]43)[C@@H]1CC[C@@H]2O [NANDROLONE]	> 20	> 20
CC(=O)Oc1cc(OC(C)CCCc2ccccc2)cc2c1[C@@H]1C[C@H](O)CC[C@H]1[C@H](C)N2 (stereo not given in full) [NANTRADOL HYDROCHLORIDE]	> 20	> 20
